Patent publication US20060074109A1, “Use of inhibitors of 24-hydroxylase in the treatment of cancer” (Sapphire Therapeutics, Inc., priority 2004, published 2006)
Like-named read-outs stand apart in the source and are kept apart here.

Key:
OVCAR-3 cells = assay: Cell growth assay, crystal violet, 11 days; format: cell-based, human; conditions: 11 days
Description: (§1) The human ovarian adenocarcinoma cell line, OVCAR-3 (ATCC, Manassas, Va.) was maintained, as recommended by the supplier, in RPMI 1640 medium (Sigma Aldrich, St. Louis, Mo.) supplemented with 10% FBS, 10 μg/ml insulin, 0.25% glucose and antibiotics (100 IU/ml penicillin, 100 μg/ml streptomycin). Human ovarian adenocarcinoma cell lines UT-OC-1, UT-OC-2, UT-OC-3, UT-OC-4, UT-OC-5 (Grenman, S., Engblom, P., Rantanen, V., Klemi, P. and Isola, J., “Cytogenetic Characterization of Five New Ovarian Carcinoma Cell Lines,” Acta Obstet. Gynecol. Scand., 76:83 (1997)) and SK-OV-3 and a human keratinocyte cell line HaCaT were grown in DMEM (Sigma Aldrich) with 10% FBS and antibiotics (100 IU/ml penicillin, 100 μg/ml streptomycin), and monkey kidney COS cells were maintained in DMEM/F12 (Sigma Aldrich) with 5% FBS. All cell lines were kept at 37° C. in a humidified 95% air/5% CO2 incubator.
(§2) When OVCAR-3 cells were on the logarithmic growth phase (70% confluent) the growth assay was started. For cell growth assay, 2,000 cell/200 μl/well were plated on 96-well culture plates. […] Ethanol was used as a vehicle, and it was also included in the control. The medium containing ethanol vehicle and/or hormones were changed to a fresh one every third day. Cell growth samples were taken 0, 1, 3, 5, 7, 9 and 11 days after the treatment.
(§3) Relative cell numbers were quantified as described previously (Kueng W, Silber E, Eppenberger U. Quantification of cells cultured on 96-well plates. Anal. Biochem., 182:16-9 (1989)). Cells were fixed on the bottom of the wells by addition of 10 μl of 11% glutaraldehyde solution in 0.1% phosphate buffer to 100 μl of medium. The plate was shaken 500 cycles/min for 15 min, washed 3 times by submersion in de-ionised water and air-dried. Fixed cells were stained with 0.1% solution of crystal violet dissolved in de-ionised water. After 20 min incubation, excess dye was removed by carefully washing with de-ionised water. The plate was air-dried prior to a bound dye solubilisation in 100 μl of 10% acetic acid. Relative cell number was given as absorbance units by measuring the optical density (590 nm) from each well using Victor 1420 multilabel counter (Wallac, Turku, Finland). Six determinations were used to calculate the mean optical density ±SD in each concentration at each time point. The absorbance value of day 0 (an overnight culture of 2,000 cells/well) was set as 0 by subtracting it from each value obtained from adjacent time-point measurements (days 1-11), and based on these values growth curves were created. Experiments were repeated 3-5 times. Day 11 was used to compare the effect of hormone treatments and 24OHase inhibitor. Statistical analyses were done using Student's t-test.
The cell growth response was determined as described in Experiment I. Briefly, cells were treated with indicated hormone concentrations or combinations of hormone and 24OHase inhibitor (VID400) for 11 days. The growth medium and hormones were changed to a fresh one every third day. After the treatment period, cells were fixed, stained with crystal violet, and the optical density (590 nm) was determined. The cell growth is presented as a percentage of ethanol-treated cells. The values represent the mean of 3 separate experiments ±SD. (*p<0.05, **p<0.001, ***p<0.0001, Student's t-test).
(§4) Cell growth samples were obtained after 11 days treatment.

[1] = tested on: 24OHase mRNA in OVCAR-3 cells; assay: Quantitative RT-PCR of 24OHase mRNA; format: cell-based, human; conditions: 100 nM
Description: Ethanol was used as a vehicle, and it was also added to the control cells. For RNA extraction, the cells were collected 4, 6 and 24 hr after the treatment with vitamin D compound or vehicle. RNA extractions were done with TRIZOL reagent (GIBCO Invitrogen Corporation, Paisley, UK). The integrity of RNA samples was confirmed on gel electrophoresis. […] The reactions for 24-hydroxylase were performed in the LightCycler instrument (Roche Diagnostics, Basel, Switzerland) from 300 ng total RNA. PBGD (human porphobilinogendeaminase) mRNA was used as an […] control. […] Nucleotides, Tth DNA polymerase (DNA polymerase and reverse transcriptase activity), SYBR Green I and reaction buffer were included in the LightCycler-RNA Master SYBR Green I kit (Roche Diagnostics). […] Cell. […] Detection of fluorescent product was performed at the end of the extension step of each cycle. To verify the specific products, melting curve analysis and gel electrophoresis were done. The data were quantified by the Fit Points method with LightCycler Data Analysis software. […] Hormone treatments and RT-PCR were done twice.

[2] = tested on: CWR22Rv-1 prostate cancer cells; assay: Cell growth, methylene blue uptake (Experiment VI); format: cell-based; conditions: calcitriol alone, compared with OVCAR-3
Description: (§5) Culture conditions were the same as for Experiment I. Cell growth was measured using uptake of methylene blue (0.5% in 50% ethanol), followed by air drying and release of the dye in 1% sodium N-lauroyl sarcosine in PBS.

[3] = tested on: PC3 prostate cancer cells; assay: Cell growth, methylene blue uptake (Experiment VI); format: cell-based; conditions: calcitriol alone, compared with OVCAR-3
Description: as §5

[4] = tested on: DU145 prostate cancer cells; assay: Cell growth, methylene blue uptake (Experiment VI); format: cell-based; conditions: calcitriol alone, compared with OVCAR-3
Description: as §5

[5] = tested on: RARγ mRNA in UT-OC-1 cells; assay: RPA and quantitative RT-PCR of receptor mRNA; format: cell-based, human; conditions: 24 hour
From the text: (§6) Briefly, ^32P-labelled ([α-^32P]UTP, Amersham Biosciences, Buckinghamshire, UK) RNA-probes were synthesised using in vitro transcription reaction (In vitro transcription reaction kit, Pharmingen, San Diego, Calif.) using two different template sets.
(§7) RPLP0 was used as reference gene.

[6] = tested on: RARα mRNA in SK-OV-3 cells; assay: RPA and quantitative RT-PCR of receptor mRNA; format: cell-based, human; conditions: 24 hour
From the text: as §6, §7

[7] = tested on: RARγ mRNA in SK-OV-3 cells; assay: RPA and quantitative RT-PCR of receptor mRNA; format: cell-based, human; conditions: 24 hour
From the text: as §6, §7

[8] = tested on: OVCAR-3 ovarian cancer cells; assay: Cell growth, methylene blue uptake (Experiment VI); format: cell-based, human; conditions: calcitriol alone
Description: as §5

UT-OC-4 cells = assay: Cell growth assay, crystal violet, 11 days; format: cell-based, human; conditions: 11 days
Description: as §1, §2, §3, §4

UT-OC-1 cells = assay: Cell growth assay, crystal violet, 11 days; format: cell-based, human; conditions: 11 days
Description: as §1, §2, §3, §4

[9] = tested on: VDR mRNA in UT-OC-1 cells; assay: RPA and quantitative RT-PCR of receptor mRNA; format: cell-based, human; conditions: 10 μM, 24 hour
From the text: as §6, §7

[10] = tested on: RARβ mRNA in SK-OV-3 cells; assay: RPA and quantitative RT-PCR of receptor mRNA; format: cell-based, human; conditions: 10 μM, 24 hour
From the text: as §6, §7

[11] = tested on: RARβ mRNA in OVCAR-3 cells; assay: RPA and quantitative RT-PCR of receptor mRNA; format: cell-based, human; conditions: 10 μM, 24 hour
From the text: as §6, §7

[12] = tested on: AIB1 mRNA in OVCAR-3 cells; assay: RPA of nuclear receptor coregulator mRNA; format: cell-based, human; conditions: 10 μM, 24 hour
From the text: Briefly, ^32P-labelled ([α-^32P]UTP, Amersham Biosciences, Buckinghamshire, UK) RNA-probes were synthesised using in vitro transcription reaction (In vitro transcription reaction kit, Pharmingen, San Diego, Calif.) using two different template sets. […] A coregulator set produces probes for NCoR (360 bp), SMRT (310 bp), pCAF (267 bp), CBP (234 bp), TIF2 (200 bp), AIB1 (179 bp), SRC-1a (145 bp) and −1e (160 bp) and p300 (127 bp); 18S (80 bp) was used as loading control with each probe set.

SK-OV-3 cells = assay: Cell growth assay, crystal violet, 11 days; format: cell-based, human; conditions: alone (1 or 10 μM)
Description: as §1, §2, §3, §4

24-hydroxylase = molecular target: T1, 24-hydroxylase (Homo sapiens, UniProt Q07973); conditions: Kahraman et al., J. Med. Chem. 47:6854-6863 (2004); cited from earlier work
T1 sequence (Q07973 36-514): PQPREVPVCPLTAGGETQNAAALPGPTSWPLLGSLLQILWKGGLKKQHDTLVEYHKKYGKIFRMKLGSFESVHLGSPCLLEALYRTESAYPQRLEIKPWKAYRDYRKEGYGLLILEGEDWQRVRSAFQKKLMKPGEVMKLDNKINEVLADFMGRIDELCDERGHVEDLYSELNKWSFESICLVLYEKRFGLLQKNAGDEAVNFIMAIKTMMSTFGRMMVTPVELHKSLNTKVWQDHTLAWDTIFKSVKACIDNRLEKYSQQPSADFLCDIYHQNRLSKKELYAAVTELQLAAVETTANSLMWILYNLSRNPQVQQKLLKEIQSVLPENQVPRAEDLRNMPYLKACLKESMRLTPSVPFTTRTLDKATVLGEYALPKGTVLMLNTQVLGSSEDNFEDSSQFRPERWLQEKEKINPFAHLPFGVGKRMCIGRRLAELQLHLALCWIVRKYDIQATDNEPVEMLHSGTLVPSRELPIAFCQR

Compound | VDR expression [9] | RARβ expression [10] | up regulation of RARγ compared to control ([5]; 10 μM) | RARα expression ([6]; 10 μM) | RARβ expression [11] | increase of RARγ compared to control ([7]; 10 μM) | AIB1 expression [12] | effect on cell growth (UT-OC-4 cells; 10 μM alone) | effect on cell growth (UT-OC-1 cells; 10 μM alone) | effect on cell growth (SK-OV-3 cells) | inhibitory potency for 24-hydroxylase (24-hydroxylase) | further results
C=C1/C(=C\C=C2/CCC[C@]3(C)[C@@H]([C@H](C)CCCC(C)(C)O)CC[C@@H]23)C[C@@H](O)C[C@@H]1O [1,25(OH)2D3, calcitriol] |  |  |  |  |  |  |  |  |  |  |  | stimulated growth compared to the control (OVCAR-3 cells; 0.1 nM): 14%; effect on the cell growth (OVCAR-3 cells; 1 nM alone, Experiment IV): did not have an effect on the cell growth; effect on the cell growth (OVCAR-3 cells; 1 nM, Experiment I): did not have an effect on the cell growth; inhibition at 0.01 µM (OVCAR-3 cells; Homo sapiens, OVCAR-3, 264 h, 10 nM alone, Experiment IV, read-out: growth inhibition compared to the control): 26%; inhibition at 0.01 µM (OVCAR-3 cells; Homo sapiens, OVCAR-3, 264 h, 10 nM, Experiment I, read-out: inhibited growth compared to the control): 8%; inhibition at 0.1 µM (OVCAR-3 cells; Homo sapiens, OVCAR-3, 264 h, 100 nM, read-out: inhibited growth compared to the control): 74%; induction of 24OHase mRNA expression ([1]; 6 hr treatment): 650 fold; induction of 24OHase mRNA expression ([1]; 24 hr treatment): 1,100 fold; effect on cell growth [2]: less pronounced; effect on cell growth [3]: less pronounced; effect on cell growth [4]: less pronounced; up regulation of RARγ compared to control ([5]; 100 nM): 91±81%; RARα expression ([6]; 100 nM): 186±8 % of control; increase of RARγ compared to control ([7]; 100 nM): 78±12%; effect on cell growth [8]: inhibited cell growth in a concentration-dependent manner; effect on cell growth (UT-OC-4 cells; 100 nM alone): did not restrain cell growth; effect on cell growth (UT-OC-1 cells; 100 nM alone): did not inhibit the cell growth
CC1=C(/C=C/C(C)=C\C=C\C(C)=C\C(=O)O)C(C)(C)CCC1 [9-CRA, 9-cis retinoic acid] | 58±25 % of control | 345±17 % of control | 44±15% | 195±1 % of control | 276±68 % of control | 119±52% | 171 (±5) % of ethanol-treated control | inhibited UT-OC-4 cell growth | inhibited cell growth with equal magnitude | inhibited the growth of SK-OV-3 cells |  | 
CC1=C(/C=C/C(C)=C/C=C/C(C)=C/C(=O)O)C(C)(C)CCC1 [ATRA, all-trans-retinoic acid] | 53±11 % of control | 657±30 % of control | 83±66% | 293±70 % of control | 214±127 % of control | 119±19% | 160 (±10) % of ethanol-treated control | inhibited UT-OC-4 cell growth | inhibited cell growth with equal magnitude | inhibited the growth of SK-OV-3 cells |  | 
C=C1/C(=C\C=C2/CCCC3(C)C2CC[C@@H]3[C@H](C)CCS(=N)(=O)c2ccc(F)cc2)C[C@@H](O)C[C@@H]1O (stereo partly drawn) [Formula VI] |  |  |  |  |  |  |  |  |  |  | Only slightly less potent | 
C=C1/C(=C\C=C2/CCCC3(C)C2CC[C@@H]3[C@H](C)CCS(=N)(=O)c2ccccc2)C[C@@H](O)C[C@@H]1O (stereo partly drawn) [Formula V] |  |  |  |  |  |  |  |  |  |  | most potent compound | 
